This note sets out measurements from patent publication US10533015B1, “Opioid receptor antagonist prodrugs” (Nirsum Laboratories, Inc., priority 2019, dated 2020).

Setting [1] is: heating temp. 60 °C, obs. temp. 25 °C.
[2] abbreviates: section 'Solubility by volumetric flask method', heating temp. 40 °C, obs. temp. 40 °C.
Setting [3] is: heating temp. 40 °C, obs. temp. 40 °C.
The mark [4] stands for this setting: heating temp. 60 °C, obs. temp. 40 °C.

Read-outs that look alike come from different tables or passages of the source.

`C=C1CC[C@@]2(O)C3Cc4ccc(OC(=O)OCCCCCCCCCCC)c5c4[C@@]2(CCN3CC2CC2)[C@H]1O5` [Compound 3, (4aS,7aS,12bS)-3-(cyclopropylmethyl)-4a-hydroxy-7-methylene-2,3,4,4a,5,6,7,7a-octahydro-1H-4,12-methanobenzofuro[3,2-e]isoquinolin-9-yl undecyl carbonate]: under setting [1], the “Solubility by volumetric flask method: Cottonseed oil” value is listed as over 399.12 mg/mL and the “Solubility by volumetric flask method: Sesame oil” value is given as over 400.7 mg/mL. Moreover, the “Equilibrium solubility (mg/mL) Water” value under setting [2] is reported as under 0.001 mg/mL.

On to `CCCCCCCCCCCOC(=O)OCOc1ccc2c3c1O[C@H]1C(=O)CC[C@@]4(O)C(C2)N(CC2CC2)CC[C@]314` [Compound 4, (((4aS,7aR,12bS)-3-(cyclopropylmethyl)-4a-hydroxy-7-oxo-2,3,4,4a,5,6,7,7a-octahydro-1H-4,12-methanobenzofuro[3,2-e]isoquinolin-9-yl)oxy)methyl undecyl carbonate], for which, under setting [1], the “Solubility by volumetric flask method: Cottonseed oil” value is over 395.3 mg/mL and the “Solubility by volumetric flask method: Sesame oil” value is on record as over 400.4 mg/mL. Besides, the “Equilibrium solubility (mg/mL) Water” value under setting [2] is reported as under 0.001 mg/mL.

Consider `C=C1CC[C@@]2(O)C3Cc4ccc(OCOC(=O)OCCCCCCCCCCC)c5c4[C@@]2(CCN3CC2CC2)[C@H]1O5` [Compound 5, (((4aS,7aS,12bS)-3-(cyclopropylmethyl)-4a-hydroxy-7-methylene-2,3,4,4a,5,6,7,7a-octahydro-1H-4,12-methanobenzofuro[3,2-e]isoquinolin-9-yl)oxy)methyl undecyl carbonate], for which, under setting [1], the “Solubility by volumetric flask method: Cottonseed oil” value is over 401.8 mg/mL and the “Solubility by volumetric flask method: Sesame oil” value is reported as over 400.6 mg/mL. For the same compound, under setting [2], the “Equilibrium solubility (mg/mL) Water” value is recorded as under 0.001 mg/mL.

Take `CCCCCCCC/C=C/CCCCCCCC(=O)Oc1ccc2c3c1O[C@H]1C(=O)CC[C@@]4(O)C(C2)N(CC2CC2)CC[C@]314` [Compound 8, (4aS,7aR,12bS)-3-(cyclopropylmethyl)-4a-hydroxy-7-oxo-2,3,4,4a,5,6,7,7a-octahydro-1H-4,12-methanobenzofuro[3,2-e]isoquinolin-9-yl (E)-octadec-9-enoate]: the “Approximate Solubility (mg/mL) in Excipient: Cottonseed oil” value (“Approximate Solubility … Cottonseed oil” below) (heating 60 °C, obs. 25 °C, initial failed batch due to non-optimized synthesis) was under 50 mg/mL. Under setting [1], the “Solubility by volumetric flask method: Sesame oil” value is over 399.8 mg/mL. Besides, the “Equilibrium solubility (mg/mL) Water” value under setting [2] is given as under 0.001 mg/mL.

Consider `C=C1CC[C@@]2(O)C3Cc4ccc(OC(=O)CCCCCCCCCCCCCCCCC)c5c4[C@@]2(CCN3CC2CC2)[C@H]1O5` [Compound 12, (4aS,7aS,12bS)-3-(cyclopropylmethyl)-4a-hydroxy-7-methylene-2,3,4,4a,5,6,7,7a-octahydro-1H-4,12-methanobenzofuro[3,2-e]isoquinolin-9-yl stearate], for which, under setting [3], the “Approximate Solubility … Cottonseed oil” value lay in the range of 100 to 120 mg/mL, the “Approximate Solubility (mg/mL) in Excipient: Ethanol” value (from here on “Approximate Solubility … Ethanol”) is 65 to 75 mg/mL and the “Approximate Solubility (mg/mL) in Excipient: Sesame oil” value (shortened to “Approximate Solubility … Sesame oil”) was 70 to 95 mg/mL. Further, under setting [1], the “Approximate Solubility … Cottonseed oil” value is under 51 mg/mL and the “Approximate Solubility … Sesame oil” value is recorded as under 50 mg/mL. Moreover, under setting [4], the “Approximate Solubility … Cottonseed oil” value was over 398.5 mg/mL and the “Approximate Solubility … Sesame oil” value is recorded as over 411.1 mg/mL.

As to `C=C1CC[C@@]2(O)C3Cc4ccc(OC(=O)CCCCCCCCCCC/C=C\CCCCCCCC)c5c4[C@@]2(CCN3CC2CC2)[C@H]1O5` [Compound 13, (4aS,7aS,12bS)-3-(cyclopropylmethyl)-4a-hydroxy-7-methylene-2,3,4,4a,5,6,7,7a-octahydro-1H-4,12-methanobenzofuro[3,2-e]isoquinolin-9-yl (Z)-docos-13-enoate], under setting [3], the “Approximate Solubility … Cottonseed oil” value is listed as over 381 mg/mL, the “Approximate Solubility … Ethanol” value is recorded as over 214 mg/mL and the “Approximate Solubility … Sesame oil” value is reported as over 406 mg/mL. Under setting [1], the “Approximate Solubility … Cottonseed oil” value is under 50 mg/mL and the “Approximate Solubility … Sesame oil” value was 91 to 121 mg/mL.

On to `C=C1CC[C@@]2(O)C3Cc4ccc(OC(=O)CCCCCCC/C=C\C/C=C\C/C=C\CC)c5c4[C@@]2(CCN3CC2CC2)[C@H]1O5` [Compound 20, (4aS,7aS,12bS)-3-(cyclopropylmethyl)-4a-hydroxy-7-methylene-2,3,4,4a,5,6,7,7a-octahydro-1H-4,12-methanobenzofuro[3,2-e]isoquinolin-9-yl (9Z,12Z,15Z)-octadeca-9,12,15-trienoate], for which, under setting [3], the “Approximate Solubility … Cottonseed oil” value is on record as over 414 mg/mL, the “Approximate Solubility … Ethanol” value was 157 to 197 mg/mL, the “Approximate Solubility … Sesame oil” value is reported as over 406 mg/mL and the “Equilibrium solubility (mg/mL) Water” value is given as under 0.0002 mg/mL. In addition, under setting [1], the “Approximate Solubility … Cottonseed oil” value was 68 to 82 mg/mL and the “Approximate Solubility … Sesame oil” value was in the range of 80 to 100 mg/mL.

As for `CCCCCCCC/C=C\CCCCCCCCCCCC(=O)Oc1ccc2c3c1O[C@H]1C(=O)CC[C@@]4(O)C(C2)N(CC2CC2)CC[C@]314` [Compound 22, (4aS,7aR,12bS)-3-(cyclopropylmethyl)-4a-hydroxy-7-oxo-2,3,4,4a,5,6,7,7a-octahydro-1H-4,12-methanobenzofuro[3,2-e]isoquinolin-9-yl (Z)-docos-13-enoate], under setting [1], the “Approximate Solubility … Cottonseed oil” value lay within 67 to 80 mg/mL and the “Approximate Solubility … Sesame oil” value was 67 to 80 mg/mL. Further, under setting [4], the “Approximate Solubility … Cottonseed oil” value is listed as over 405.9 mg/mL, the “Approximate Solubility … Ethanol” value is recorded as over 397.7 mg/mL and the “Approximate Solubility … Sesame oil” value is given as over 401.9 mg/mL.

In the case of `CCCCCCCC/C=C/CCCCCCCC(=O)OCOc1ccc2c3c1O[C@H]1C(=O)CC[C@@]4(O)C(C2)N(CC2CC2)CC[C@]314` [Compound 26, (((4aS,7aR,12bS)-3-(cyclopropylmethyl)-4a-hydroxy-7-oxo-2,3,4,4a,5,6,7,7a-octahydro-1H-4,12-methanobenzofuro[3,2-e]isoquinolin-9-yl)oxy)methyl (E)-octadec-9-enoate], under setting [1], the “Approximate Solubility … Cottonseed oil” value was 204.3-239^ mg/mL and the “Approximate Solubility … Sesame oil” value is recorded as under 354 mg/mL. Also, the “Equilibrium solubility (mg/mL) Water” value under setting [3] was under 0.001 mg/mL.

As to `CCCCCCCCCCCCCCOC(=O)OCOc1ccc2c3c1O[C@H]1C(=O)CC[C@@]4(O)C(C2)N(CC2CC2)CC[C@]314` [Compound 27, (((4aS,7aR,12bS)-3-(cyclopropylmethyl)-4a-hydroxy-7-oxo-2,3,4,4a,5,6,7,7a-octahydro-1H-4,12-methanobenzofuro[3,2-e]isoquinolin-9-yl)oxy)methyl tetradecyl carbonate], under setting [1], the “Approximate Solubility … Cottonseed oil” value is over 394.7 mg/mL and the “Approximate Solubility … Sesame oil” value is given as over 399.2 mg/mL. The “Equilibrium solubility (mg/mL) Water” value under setting [3] is recorded as under 0.001 mg/mL.

With `C=C1CC[C@@]2(O)C3Cc4ccc(OC(=O)OCCCCCCCCCCCCCCCCCCCC)c5c4[C@@]2(CCN3CC2CC2)[C@H]1O5` [Compound 28, (4aS,7aS,12bS)-3-(cyclopropylmethyl)-4a-hydroxy-7-methylene-2,3,4,4a,5,6,7,7a-octahydro-1H-4,12-methanobenzofuro[3,2-e]isoquinolin-9-yl icosyl carbonate], under setting [1], the “Approximate Solubility … Cottonseed oil” value is on record as under 50.2 mg/mL and the “Approximate Solubility … Sesame oil” value was under 50.6 mg/mL. The “Equilibrium solubility (mg/mL) Water” value under setting [3] is recorded as under 0.001 mg/mL.

As to `CCCCCCCCCCCCOC(=O)OCOc1ccc2c3c1O[C@H]1C(=O)CC[C@@]4(O)C(C2)N(CC2CC2)CC[C@]314` [Compound 29, (((4aS,7aR,12bS)-3-(cyclopropylmethyl)-4a-hydroxy-7-oxo-2,3,4,4a,5,6,7,7a-octahydro-1H-4,12-methanobenzofuro[3,2-e]isoquinolin-9-yl)oxy)methyl dodecyl carbonate], under setting [1], the “Approximate Solubility … Cottonseed oil” value was over 410.2 mg/mL and the “Approximate Solubility … Sesame oil” value is on record as over 416.5 mg/mL. Besides, the “Equilibrium solubility (mg/mL) Water” value under setting [3] is recorded as under 0.001 mg/mL.

Regarding `C=C1CC[C@@]2(O)C3Cc4ccc(OC(=O)OCCCCCCCCCCCCCCCCCC)c5c4[C@@]2(CCN3CC2CC2)[C@H]1O5` [Compound 33, (4aS,7aS,12bS)-3-(cyclopropylmethyl)-4a-hydroxy-7-methylene-2,3,4,4a,5,6,7,7a-octahydro-1H-4,12-methanobenzofuro[3,2-e]isoquinolin-9-yl octadecyl carbonate], under setting [1], the “Approximate Solubility … Cottonseed oil” value is under 50 mg/mL and the “Approximate Solubility … Sesame oil” value was under 51 mg/mL. Moreover, the “Equilibrium solubility (mg/mL) Water” value under setting [3] was under 0.001 mg/mL.

Regarding `C=C1CC[C@@]2(O)C3Cc4ccc(OC(=O)CCCCCCC/C=C\C/C=C\CCCCC)c5c4[C@@]2(CCN3CC2CC2)[C@H]1O5` [Compound 37, (4aS,7aS,12bS)-3-(cyclopropylmethyl)-4a-hydroxy-7-methylene-2,3,4,4a,5,6,7,7a-octahydro-1H-4,12-methanobenzofuro[3,2-e]isoquinolin-9-yl (9Z,12Z)-octadeca-9,12-dienoate], the “Approximate Solubility (mg/mL) in Excipient: Castor oil” value (Castor oil, heating temp. 40 °C, obs. temp. 40 °C) is reported as over 226 mg/mL. Also, under setting [1], the “Approximate Solubility … Cottonseed oil” value is listed as 68.5-82^ mg/mL and the “Approximate Solubility … Sesame oil” value lay within 80 to 102 mg/mL. Under setting [3], the “Approximate Solubility … Ethanol” value was in the range of 75 to 90 mg/mL and the “Approximate Solubility … Sesame oil” value is listed as over 408.4 mg/mL.
